Assay results reported in patent US11020378B2, “Compounds, compositions and methods for treating insulin resistance” (UNIVERSITE PARIS DESCARTES, priority 2017, dated 2021).
Where two headings read alike, the source gives them in different places.

What was measured:
[1] = test system: PI3K/Akt pathway; assay: Luc-Akt-PH/YFP-membrane BRET in HEK293T cells (recruitment of Akt to the membrane); format: cell-based; settings: for effect on the recruitment of kinase Akt to the membrane: in the absence of the hormone
Description: To measure the activity of the PI3-kinase pathway by the BRET technique, HEK293T cells are transfected with plasmids allowing, on the one hand, the expression of the PH (Pleckstrin Homology) domain of the Akt protein which has been fused to the luciferase and, on the other hand, a membrane-addressing sequence which has been fused to the YFP protein. When the PH domain of Akt is recruited to the membrane by the PIP3s, an energy transfer between the luciferase that is coupled to the PH domain of Akt and the membrane YFP protein takes place. The measured BRET signal is a control of the production of PIP3s at the membrane and is a reflection of the activation of the PI-3-kinase/Akt pathway in real time on cells.

[2] = molecular target: T1, IR-Grb14 interaction (Homo sapiens, UniProt P06213); assay: IR-Luc/Grb14-YFP BRET technique in a cell-free system; format: binding; settings: for % BRET signal/DMSO control / remaining activity at 50 µM: insulin stimulation (100 nM)
T1 construct: a vector encoding the insulin receptor fused to the luciferase (IR-Luc); made in house; host or cells: HEK293T (transfected); IR-Luc was partially purified on wheat germ lectin sepharose; Grb14-YFP was used as crude lysate
Procedure: Compounds according to the invention were experimentally assessed for their inhibitory effect on the IR-Grb14 interaction by a BRET technique in a cell-free system described briefly below.
On the one hand, HEK293T cells were transfected with a vector encoding the insulin receptor fused to the luciferase (IR-Luc). Before lysis, the cells transfected with IR-Luc were stimulated or not with 100 nM insulin for 10 minutes. The IR-Luc lysates were recovered and then purified on sepharose beads coupled with wheat germ lectin (WGL for Wheat Germ Lectin). The IR-Luc receptors were then eluted and then frozen in liquid nitrogen before being stored at −80° C. On the other hand, HEK293T cells were transfected either with a vector encoding the Grb14 protein fused to the YFP (Grb14-YFP), or with the empty plasmid pcDNA3. The cells transfected with Grb14-YFP or with the empty plasmid pcDNA3 were lysed 48 h after transfection. After centrifugation, the lysates are recovered and frozen at −80° C.
The insulin receptors (IR-Luc) partially purified from cells stimulated or not with insulin were incubated for 20 minutes with the inhibitor compounds according to the invention suspended in DMSO. The cellular extracts from cells transfected with Grb14-YFP (or the empty plasmid pcDNA3) were then added and then after 40 minutes of incubation, coelenterazine was added and BRET reading was initiated. The results are expressed as a percentage of the BRET signal obtained in the presence of the molecules tested compared to the BRET signal of the DMSO control.

[3] = test system: PEPCK and G6Pase expression; assay: Expression of neoglucogenesis genes in hepatocytes in primary culture (RT-qPCR); format: cell-based, mice; settings: 1 nM insulin; glucagon 10 nM
Procedure: FIG. 6, the effect of the compound of Formula (Ia) according to the invention (black bars) on the expression of insulin target genes, PEPCK (FIG. 6A) and G6Pase (FIG. 6B), involved in the neoglucogenesis pathway. Hepatocytes in primary culture are cultured for 8 h in the presence of compounds of Formula (Ia) (50 μM), insulin (1 nM) and glucagon (pre-incubation 1 h at 10 nM). The relative quantification of mRNAs is performed by RT-qPCR. The values are related to the quantification of the 18S gene in the same sample in order to normalize the results. The results are the average of 3 to 5 independent experiments (*p<0.05, **p<0.01, by Anova followed by a Newman-Keuls test).
To study the inhibitory effect of insulin on neoglucogenesis gene expression, hepatocytes from mice in primary culture were pre-incubated with 10 nM glucagon.

[4] = read-out: % BRET signal/DMSO control, 50 μM
[5] = in the presence of insulin (5 nM)

T1 sequence (P06213 763-1382 limits assumed): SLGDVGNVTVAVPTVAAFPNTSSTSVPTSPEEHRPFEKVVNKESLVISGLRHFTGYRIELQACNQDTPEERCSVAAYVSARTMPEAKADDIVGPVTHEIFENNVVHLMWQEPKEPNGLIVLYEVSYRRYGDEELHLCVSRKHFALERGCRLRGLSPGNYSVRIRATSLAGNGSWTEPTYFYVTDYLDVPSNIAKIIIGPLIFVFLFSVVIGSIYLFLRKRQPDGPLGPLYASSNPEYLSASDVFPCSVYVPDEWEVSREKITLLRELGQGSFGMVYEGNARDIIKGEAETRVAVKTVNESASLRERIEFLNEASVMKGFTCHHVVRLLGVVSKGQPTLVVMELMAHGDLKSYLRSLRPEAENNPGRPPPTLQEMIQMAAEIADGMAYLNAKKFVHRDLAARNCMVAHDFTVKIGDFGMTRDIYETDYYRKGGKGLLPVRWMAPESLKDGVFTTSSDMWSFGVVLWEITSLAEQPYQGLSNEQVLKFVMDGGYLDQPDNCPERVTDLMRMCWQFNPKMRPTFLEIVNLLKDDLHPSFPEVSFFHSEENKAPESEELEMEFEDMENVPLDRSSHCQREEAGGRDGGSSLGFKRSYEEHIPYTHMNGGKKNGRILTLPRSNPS
T1 sequence (P06213 28-758 partner limits assumed): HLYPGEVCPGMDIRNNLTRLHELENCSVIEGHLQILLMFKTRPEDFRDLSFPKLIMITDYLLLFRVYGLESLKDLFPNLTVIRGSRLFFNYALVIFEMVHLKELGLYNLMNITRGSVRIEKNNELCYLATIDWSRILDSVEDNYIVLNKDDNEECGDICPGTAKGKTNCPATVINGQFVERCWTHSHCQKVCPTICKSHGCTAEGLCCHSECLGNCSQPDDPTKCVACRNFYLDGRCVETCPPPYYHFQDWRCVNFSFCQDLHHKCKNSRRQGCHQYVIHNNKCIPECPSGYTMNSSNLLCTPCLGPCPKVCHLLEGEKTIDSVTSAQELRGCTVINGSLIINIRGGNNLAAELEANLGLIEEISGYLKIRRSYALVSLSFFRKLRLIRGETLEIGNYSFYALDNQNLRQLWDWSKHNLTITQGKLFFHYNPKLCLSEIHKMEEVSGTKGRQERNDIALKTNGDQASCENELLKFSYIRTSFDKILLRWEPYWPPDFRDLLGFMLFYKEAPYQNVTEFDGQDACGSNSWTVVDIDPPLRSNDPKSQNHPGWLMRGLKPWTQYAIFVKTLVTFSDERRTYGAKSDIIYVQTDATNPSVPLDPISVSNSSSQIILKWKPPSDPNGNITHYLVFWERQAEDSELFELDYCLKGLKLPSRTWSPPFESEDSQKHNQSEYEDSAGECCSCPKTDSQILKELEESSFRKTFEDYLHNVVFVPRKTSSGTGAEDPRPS

CC(C)(C)c1cc(C=C(C#N)C#N)cc(Br)c1O [AG1024, reference compound]
BRET signal after inhibition of tyrosine kinase activity of the insulin receptor ([1]; pre-incubation 1 h with 25 μM): very significant drop

CCOc1cc(C=C2C(=O)NC(=O)NC2=O)ccc1OCc1cccc(C(=O)O)c1 [Comparative A]
significant decrease in the BRET signal / reduction in the IR-Grb14 interaction (in words) ([2]; 50 μM): do not allow for a significant decrease | % BRET signal/DMSO control ([2]; 50 μM): 103% (+/−15%)

CCOc1cc(C=C2C(=O)NC(=O)NC2=O)ccc1OCc1cccc(C(=O)O)c1 [Comparative B]
significant decrease in the BRET signal / reduction in the IR-Grb14 interaction (in words) ([2]; 50 μM): do not allow for a significant decrease | % BRET signal/DMSO control ([2]; 50 μM): 93% (+/−7%)

CCOc1cc(C=C2C(=O)NC(=O)NC2=O)ccc1OCc1cccc(C(=O)O)c1 [Comparative C]
significant decrease in the BRET signal / reduction in the IR-Grb14 interaction (in words) ([2]; 50 μM): do not allow for a significant decrease | % BRET signal/DMSO control ([2]; 50 μM): 103% (+/−8%)

CCOc1cc(C=C2C(=O)NC(=O)NC2=O)ccc1OCc1cccc(C(=O)O)c1 [Comparative D]
significant decrease in the BRET signal / reduction in the IR-Grb14 interaction (in words) ([2]; 50 μM): do not allow for a significant decrease | % BRET signal/DMSO control ([2]; 50 μM): 121% (+/−8%)

CCOc1cc(C=C2C(=O)NC(=O)NC2=O)ccc1OCc1cccc(C(=O)O)c1 [Comparative E]
significant decrease in the BRET signal / reduction in the IR-Grb14 interaction (in words) ([2]; 50 μM): do not allow for a significant decrease | % BRET signal/DMSO control ([2]; 50 μM): 98% (+/−9%)

CCOc1cc(C=C2C(=O)NC(=O)NC2=O)ccc1OCc1cccc(C(=O)O)c1 [Comparative F]
significant decrease in the BRET signal / reduction in the IR-Grb14 interaction (in words) ([2]; 50 μM): do not allow for a significant decrease | % BRET signal/DMSO control ([2]; 50 μM): 93% (+/−24%)

Cc1ccc(/C=C/C(=O)O)o1 [Comparative IVa, (E)-3-(5-methylfuran-2-yl)acrylic acid, reference compound]
significant decrease in the BRET signal / reduction in the IR-Grb14 interaction (in words) ([2]; 50 μM): do not allow for a reduction | remaining activity at 50 µM [2, 4]: 91% | effect on the recruitment of kinase Akt to the membrane [1]: no effect | BRET delta [1, 5]: −61 (+/−35) | reduction of the recruitment of the Akt protein to the membrane [1, 5]: about 50%

Cc1noc(NS(=O)(=O)c2ccc(N)cc2)c1C [Comparative Va, 4-amino-N-(3,4-dimethyl-1,2-oxazol-5-yl)benzenesulfonamide, reference compound]
significant decrease in the BRET signal / reduction in the IR-Grb14 interaction (in words) ([2]; 50 μM): do not allow for a reduction | remaining activity at 50 µM [2, 4]: 98% | effect on the recruitment of kinase Akt to the membrane [1]: no effect | BRET delta [1, 5]: −27 (+/−23) | effect on the production of PIP3s at the membrane [1, 5]: no effect

COc1cc(C=C2C(=O)NC(=S)NC2=O)ccc1OCc1cccc(C(=O)O)c1 [IIc]
decrease in the BRET signal between the insulin receptor and the Grb14 protein ([2]; 50 μM, with insulin stimulation): 25% | remaining activity at 50 µM [2, 4]: 75%

O=C1NC(=S)NC(=O)C1=Cc1ccc(OCc2cccc(C(=O)O)c2)cc1 [IId]
remaining activity at 50 µM [2, 4]: 69% | BRET delta ([1]; without insulin): 67 (+/−33)

CCOc1cc(C=C2C(=O)NC(=S)NC2=O)ccc1OCc1ccc(C(=O)O)cc1 [IIe]
remaining activity at 50 µM [2, 4]: 65% | BRET delta ([1]; without insulin): 96 (+/−50)

CCOc1ccc(/C=C2/C(=O)NC(=S)N(c3ccccc3)C2=O)cc1C(=O)O [IIf]
remaining activity at 50 µM [2, 4]: 65% | BRET delta ([1]; without insulin): 54 (+/−44)

CCc1ccc(/C=C/C(=O)Nc2ccc(S(=O)(=O)Nc3onc(C)c3C)cc2)o1 [Ib]
remaining activity at 50 µM ([2]; 50 μM, read-out: % BRET signal/DMSO control): 58% | BRET delta ([1]; without insulin): 119 (+/−26)

insulin
effect on the recruitment of the Akt protein to the membrane after AG1024 ([1]; cells pre-incubated 1 h with 25 μM AG1024, Ia 50 μM, insulin 5 nM): no longer have any effect | BRET delta ([1]; insulin 5 nM alone): about 100 | inhibition of glucagon-induced G6Pase expression [3]: 60 to 70% | inhibition of glucagon-induced PEPCK expression [3]: 60 to 70%
